What all share (type): in vivo
The subject of data set [1] is Chenopodium album. The data set can be described thus: Test Example 1 upland field foliage treatment. To be noted: Table 4, upland field foliage treatment, index 0-5. In a few lines: (§1)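 Post-emergence foliar spray of water-diluted wettable powder at 1 kg active ingredient per hectare, applied 14 days after sowing in upland soil. Weed control or crop phytotoxicity rated 21 days later on a 0–5 scale (5: ≥90%, 0: <10%).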

For data set [2], the system named is Digitaria adscendens. Description: Test Example 1 upland field foliage treatment. The settings on record: Table 4, upland field foliage treatment, index 0-5. The method in brief:
as §1

For data set [3], the system named is Setaria viridis. The data set can be described thus: Test Example 1 upland field foliage treatment. To be noted: Table 4, upland field foliage treatment, index 0-5. In a few lines:
as §1

Data set [4] concerns Stellaria media. Description: Test Example 1 upland field foliage treatment. The settings on record: Table 4, upland field foliage treatment, index 0-5. The method in brief: as §1
For data set [5], the system named is soybean (Glycine max). The data set can be described thus: Test Example 1 upland field foliage treatment, crop phytotoxicity. The settings on record: Table 4, upland field foliage treatment, index 0-5. The method in brief:
as §1

In data set [6] the test system is wheat (Triticum aestivum). The data set is described as above. To be noted: Table 4, upland field foliage treatment, index 0-5. In a few lines: as §1
In data set [7] the test system is Chenopodium album. The data set can be described thus: Test Example 2 upland soil treatment. The settings on record: Table 5, upland soil treatment, index 0-5. In a few lines:
(§2)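 Pre-emergence soil application the day after sowing, active ingredient at 1 kg per hectare as diluted wettable powder, seeds covered with about 1 cm soil. Assessed 21 days after application on a 0–5 scale (5 = ≥90% herbicidal effect or phytotoxicity; 0 = <10%).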

Data set [8] deals with Digitaria adscendens. The data set can be described thus: Test Example 2 upland soil treatment. To be noted: Table 5, upland soil treatment, index 0-5. The method in brief:
as §2

The subject of data set [9] is Setaria viridis. The data set can be described thus: Test Example 2 upland soil treatment. To be noted: Table 5, upland soil treatment, index 0-5. The method in brief:
as §2

Data set [10] relates to Stellaria media. Description: Test Example 2 upland soil treatment. To be noted: Table 5, upland soil treatment, index 0-5. The method in brief:
as §2

The test system of data set [11] is soybean (Glycine max). Description: Test Example 2 upland soil treatment, crop phytotoxicity. To be noted: Table 5, upland soil treatment, index 0-5. In a few lines:
as §2

Data set [12] deals with wheat (Triticum aestivum). The description is as above. The settings on record: Table 5, upland soil treatment, index 0-5. The method in brief: as §2
In the next data set the test system is Ammannia multiflora. Description: Test Example 3 paddy field treatment. To be noted: paddy field treatment, wettable powder, active ingredient 1 kg per hectare, 21st day after the dropping, index 0-5. The method in brief:
(§3)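 Weed seeds sown in puddled paddy soil under 4 cm water, with two-leaf Koshihikari rice transplanted; 10 days later a wettable powder was applied to the water surface at 1 kg active ingredient/ha. Scored 21 days after application on a 0–5 scale (0 = <10%, 5 = ≥90% herbicidal effect or phytotoxicity).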

In another data set the test system is Echinochloa crusgalli. Description: Test Example 3 paddy field treatment. The settings on record: paddy field treatment, wettable powder, active ingredient 1 kg per hectare, 21st day after the dropping, index 0-5. In a few lines: as §3
A further data set has as its system Monochoria vaginalis. The data set can be described thus: Test Example 3 paddy field treatment. The settings on record: paddy field treatment, wettable powder, active ingredient 1 kg per hectare, 21st day after the dropping, index 0-5. The method in brief: as §3
In another data set the test system is Scirpus juncoides. The data set can be described thus: Test Example 3 paddy field treatment. To be noted: paddy field treatment, wettable powder, active ingredient 1 kg per hectare, 21st day after the dropping, index 0-5. In a few lines: as §3
Another data set relates to Rice (Oryza sativa). The data set can be described thus: Test Example 3 paddy field treatment, crop phytotoxicity. The settings on record: paddy field treatment, transplanted rice Koshihikari, wettable powder, active ingredient 1 kg per hectare, 21st day after the dropping, index 0-5. In a few lines: as §3

Turning to `CON=C(Cn1cc(C)c(-c2ccc(Cl)cc2)n1)C(N)=O` [Compound 17], the “Herbicidal activity CA: Chenopodium album” value (“Herbicidal activity CA” below) was 5 (herbicidal effect of not less than 90%, or phytotoxicity of 90% or more) with Chenopodium album [1]; 4 (herbicidal effect of not less than 70% and less than 90%, or phytotoxicity of 70% or more and less than 90%) in the data set with Chenopodium album [7]. The “Herbicidal activity DA: Digitaria adscendens” value (“Herbicidal activity DA” below) in the data set on Digitaria adscendens [2] is 5 (herbicidal effect of not less than 90%, or phytotoxicity of 90% or more); with Digitaria adscendens [8], 4 (herbicidal effect of not less than 70% and less than 90%, or phytotoxicity of 70% or more and less than 90%). In addition, the “Herbicidal activity SV: Setaria viridis” value in the data set on Setaria viridis [3] was 5 (herbicidal effect of not less than 90%, or phytotoxicity of 90% or more); in the data set with Setaria viridis [9], 4 (herbicidal effect of not less than 70% and less than 90%, or phytotoxicity of 70% or more and less than 90%). The “Herbicidal activity SM: Stellaria media” value in the data set on Stellaria media [4] was 5 (herbicidal effect of not less than 90%, or phytotoxicity of 90% or more); in the data set on Stellaria media [10], 4 (herbicidal effect of not less than 70% and less than 90%, or phytotoxicity of 70% or more and less than 90%). For the same molecule, the “Herbicidal activity (phytotoxicity) GM: Soybean (Glycine max)” value (from here on “Herbicidal activity (phytotoxicity) GM”) was 0 (herbicidal effect of not less than 0% and less than 10%, or phytotoxicity of 0% or more and less than 10%) in the data set on soybean (Glycine max) [5]; 0 (herbicidal effect of not less than 0% and less than 10%, or phytotoxicity of 0% or more and less than 10%) in the data set on soybean (Glycine max) [11]. The “Herbicidal activity (phytotoxicity) TA: Wheat (Triticum aestivum)” value (“Herbicidal activity (phytotoxicity) TA” for short) in [6] is 0 (herbicidal effect of not less than 0% and less than 10%, or phytotoxicity of 0% or more and less than 10%); in [12], 0 (herbicidal effect of not less than 0% and less than 10%, or phytotoxicity of 0% or more and less than 10%). The “Herbicidal activity AM” value with Ammannia multiflora is 5 (herbicidal effect of not less than 90%, or phytotoxicity of 90% or more). In addition, in the data set with Echinochloa crusgalli, the “Herbicidal activity EC” value was 4 (herbicidal effect of not less than 70% and less than 90%, or phytotoxicity of 70% or more and less than 90%). The “Herbicidal activity MV” value with Monochoria vaginalis is on record as 5 (herbicidal effect of not less than 90%, or phytotoxicity of 90% or more). Besides, the “Herbicidal activity SJ” value with Scirpus juncoides was 4 (herbicidal effect of not less than 70% and less than 90%, or phytotoxicity of 70% or more and less than 90%). For the same molecule, the “Herbicidal activity OS (phytotoxicity to rice)” value (“Herbicidal activity OS” for short) in the data set on Rice (Oryza sativa) was 0 (herbicidal effect of not less than 0% and less than 10%, or phytotoxicity of 0% or more and less than 10%).
For the molecule `CNC(=O)C(Cn1cc(C)c(-c2ccccc2)n1)=NOC` [Compound 18], the “Herbicidal activity CA” value is 5 (herbicidal effect of not less than 90%, or phytotoxicity of 90% or more) in the data set with Chenopodium album [1] and 5 (herbicidal effect of not less than 90%, or phytotoxicity of 90% or more) in the data set with Chenopodium album [7]. Also, the “Herbicidal activity DA” value in the data set with Digitaria adscendens [2] was 5 (herbicidal effect of not less than 90%, or phytotoxicity of 90% or more); in the data set with Digitaria adscendens [8], 5 (herbicidal effect of not less than 90%, or phytotoxicity of 90% or more). For the same molecule, the “Herbicidal activity SV: Setaria viridis” value in the data set on Setaria viridis [3] is 5 (herbicidal effect of not less than 90%, or phytotoxicity of 90% or more); with Setaria viridis [9], 5 (herbicidal effect of not less than 90%, or phytotoxicity of 90% or more). Moreover, the “Herbicidal activity SM: Stellaria media” value with Stellaria media [4] is recorded as 5 (herbicidal effect of not less than 90%, or phytotoxicity of 90% or more); in the data set on Stellaria media [10], 5 (herbicidal effect of not less than 90%, or phytotoxicity of 90% or more). Besides, the “Herbicidal activity (phytotoxicity) GM” value in the data set on soybean (Glycine max) [5] was 0 (herbicidal effect of not less than 0% and less than 10%, or phytotoxicity of 0% or more and less than 10%); in the data set with soybean (Glycine max) [11] it was 0 (herbicidal effect of not less than 0% and less than 10%, or phytotoxicity of 0% or more and less than 10%). For the same molecule, the “Herbicidal activity (phytotoxicity) TA” value in data set [6] is 0 (herbicidal effect of not less than 0% and less than 10%, or phytotoxicity of 0% or more and less than 10%); in data set [12], 0 (herbicidal effect of not less than 0% and less than 10%, or phytotoxicity of 0% or more and less than 10%). The “Herbicidal activity AM” value in the data set with Ammannia multiflora is 5 (herbicidal effect of not less than 90%, or phytotoxicity of 90% or more). In addition, in the data set with Echinochloa crusgalli, the “Herbicidal activity EC” value was 5 (herbicidal effect of not less than 90%, or phytotoxicity of 90% or more). Further, the “Herbicidal activity MV” value in the data set on Monochoria vaginalis is reported as 5 (herbicidal effect of not less than 90%, or phytotoxicity of 90% or more). The “Herbicidal activity SJ” value in the data set with Scirpus juncoides is recorded as 5 (herbicidal effect of not less than 90%, or phytotoxicity of 90% or more). Further, the “Herbicidal activity OS” value in the data set with Rice (Oryza sativa) was 0 (herbicidal effect of not less than 0% and less than 10%, or phytotoxicity of 0% or more and less than 10%).
Take `CCNC(=O)C(Cn1cc(C)c(-c2ccccc2)n1)=NOC` [Compound 19]: the “Herbicidal activity CA” value in the data set with Chenopodium album [1] is listed as 5 (herbicidal effect of not less than 90%, or phytotoxicity of 90% or more); in the data set with Chenopodium album [7], 5 (herbicidal effect of not less than 90%, or phytotoxicity of 90% or more). The “Herbicidal activity DA” value with Digitaria adscendens [2] is recorded as 5 (herbicidal effect of not less than 90%, or phytotoxicity of 90% or more); in the data set on Digitaria adscendens [8] it was 5 (herbicidal effect of not less than 90%, or phytotoxicity of 90% or more). Also, the “Herbicidal activity SV: Setaria viridis” value is given as 5 (herbicidal effect of not less than 90%, or phytotoxicity of 90% or more) in the data set with Setaria viridis [3] and 5 (herbicidal effect of not less than 90%, or phytotoxicity of 90% or more) with Setaria viridis [9]. Further, the “Herbicidal activity SM: Stellaria media” value is on record as 5 (herbicidal effect of not less than 90%, or phytotoxicity of 90% or more) with Stellaria media [4] and 5 (herbicidal effect of not less than 90%, or phytotoxicity of 90% or more) in the data set with Stellaria media [10]. Moreover, the “Herbicidal activity (phytotoxicity) GM” value is 0 (herbicidal effect of not less than 0% and less than 10%, or phytotoxicity of 0% or more and less than 10%) with soybean (Glycine max) [5]; 0 (herbicidal effect of not less than 0% and less than 10%, or phytotoxicity of 0% or more and less than 10%) with soybean (Glycine max) [11]. For the same molecule, the “Herbicidal activity (phytotoxicity) TA” value in data set [6] was 0 (herbicidal effect of not less than 0% and less than 10%, or phytotoxicity of 0% or more and less than 10%); in data set [12], 0 (herbicidal effect of not less than 0% and less than 10%, or phytotoxicity of 0% or more and less than 10%). In addition, in the data set on Ammannia multiflora, the “Herbicidal activity AM” value is given as 5 (herbicidal effect of not less than 90%, or phytotoxicity of 90% or more). In addition, in the data set on Echinochloa crusgalli, the “Herbicidal activity EC” value is on record as 5 (herbicidal effect of not less than 90%, or phytotoxicity of 90% or more). For the same molecule, in the data set with Monochoria vaginalis, the “Herbicidal activity MV” value is reported as 5 (herbicidal effect of not less than 90%, or phytotoxicity of 90% or more). In the data set on Scirpus juncoides, the “Herbicidal activity SJ” value was 5 (herbicidal effect of not less than 90%, or phytotoxicity of 90% or more). Moreover, in the data set with Rice (Oryza sativa), the “Herbicidal activity OS” value is 0 (herbicidal effect of not less than 0% and less than 10%, or phytotoxicity of 0% or more and less than 10%).

These data come from US7192906B2, “Substituted pyrazole derivatives, production process thereof, and herbicide compositions containing the derivatives” (SDS Biotech K.K., priority 2001, dated 2007).
